# From patent US20240384268A1, “Oligonucleotides” (Hudson Institute of Medical Research, priority 2021, published 2024)
# In the oligonucleotide strings, read from the 5' end, every base follows the letter of its sugar. An asterisk marks phosphorothioate; unmarked linkages are phosphodiester. Other units and linkages are bracketed, terminal groups are in braces. A string of capitals states the bases alone. d = 2'-deoxy (DNA); m = 2'-O-methyl
# Molecular target: T1, TLR8 (Homo sapiens, UniProt Q9NR97)
# T1 sequence (Q9NR97 27-1041): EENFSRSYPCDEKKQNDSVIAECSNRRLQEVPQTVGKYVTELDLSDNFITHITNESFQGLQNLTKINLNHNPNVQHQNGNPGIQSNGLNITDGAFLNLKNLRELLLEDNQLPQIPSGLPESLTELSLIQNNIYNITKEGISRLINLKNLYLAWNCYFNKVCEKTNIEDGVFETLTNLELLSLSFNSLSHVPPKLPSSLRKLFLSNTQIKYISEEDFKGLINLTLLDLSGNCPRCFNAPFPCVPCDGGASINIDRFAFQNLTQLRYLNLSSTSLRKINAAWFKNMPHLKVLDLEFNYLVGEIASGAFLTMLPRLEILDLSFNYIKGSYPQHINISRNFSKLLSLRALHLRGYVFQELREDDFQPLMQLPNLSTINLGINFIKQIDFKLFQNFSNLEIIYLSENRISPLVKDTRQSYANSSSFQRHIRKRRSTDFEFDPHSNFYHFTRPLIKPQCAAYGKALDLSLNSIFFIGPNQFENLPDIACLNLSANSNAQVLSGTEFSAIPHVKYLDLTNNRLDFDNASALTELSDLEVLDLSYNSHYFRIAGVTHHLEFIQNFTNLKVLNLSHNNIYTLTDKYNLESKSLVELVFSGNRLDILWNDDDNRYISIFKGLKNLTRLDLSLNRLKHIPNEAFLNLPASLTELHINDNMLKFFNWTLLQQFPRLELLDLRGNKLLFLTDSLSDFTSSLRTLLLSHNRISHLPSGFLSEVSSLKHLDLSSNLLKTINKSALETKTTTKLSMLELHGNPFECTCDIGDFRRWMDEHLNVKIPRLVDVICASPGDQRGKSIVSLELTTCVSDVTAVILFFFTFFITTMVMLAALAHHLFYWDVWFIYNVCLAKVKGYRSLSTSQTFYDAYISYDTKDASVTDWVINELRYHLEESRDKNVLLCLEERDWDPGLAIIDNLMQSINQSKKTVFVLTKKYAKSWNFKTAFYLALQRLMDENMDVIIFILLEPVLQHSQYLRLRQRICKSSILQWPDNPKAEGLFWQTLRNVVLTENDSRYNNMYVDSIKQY
# Test: HEK-TLR8 NF-κB-luciferase reporter, R848 or Motolimod stimulation (potentiation or inhibition)
# Format: cell-based
# Parameters: expressed in transfected cells; host or cells: 293XLhTLR8 (HEK293)
# Conditions: for TLR8-500 nM: averaged NF-κB-Luciferase relative to R848: HEK-TLR8, 500 nM ASO, fold increase relative to R848 without ASO (Alharbi et al., 2020)
substance,measurement,setting,value
"mC*mA*mC*mC*mC*T*T*C*T*C*T*C*T*G*G*mU*mC*mC*mC*mA (CACCCTTCTCTCTGGUCCCA; antisense; sugars from the 5' end m5 d10 m5, all phosphorothioate, methylation of C not given here) [[LINC-PINT]116]",TLR8-500 nM: averaged NF-κB-Luciferase relative to R848,,5.97 fold
mU*mU*mC*mU*mC*T*C*T*G*G*T*C*C*C*A*mU*mC*mC*mC*mU (mU*mU*mC*mU*mC*dT*dC*dT*dG*dG*dT*dC*dC*dC*dA*mU*mC*mC*mC*mU; antisense) [[LINC-PINT]111],TLR8-500 nM: averaged NF-κB-Luciferase relative to R848,,9.51 fold
mU*mC*mU*mC*mC*A*T*G*T*C*C*C*A*G*G*mC*mC*mU*mC*mC (mU*mC*mU*mC*mC*dA*dT*dG*dT*dC*dC*dC*dA*dG*dG*mC*mC*mU*mC*mC; antisense) [[CDKN2B-AS1]2230],TLR8-500 nM: averaged NF-κB-Luciferase relative to R848,,9.17 fold
mA*mA*mA*mG*mA*T*T*A*T*C*T*T*C*T*T*mU*mU*mA*mA*mU (mA*mA*mA*mG*mA*dT*dT*dA*dT*dC*dT*dT*dC*dT*dT*mU*mU*mA*mA*mU) [[CDKN2B-AS1]2132],TLR8-500 nM: averaged NF-κB-Luciferase relative to R848,,5.04 fold
mG*mU*mU*mC*mA*G*T*C*A*G*A*T*C*G*C*mU*mG*mG*mG*mA (mG*mU*mU*mC*mA*dG*dT*dC*dA*dG*dA*dT*dC*dG*dC*mU*mG*mG*mG*mA) [[LINC-PINT]412 KL],TLR8-500 nM: averaged NF-κB-Luciferase relative to R848,,1.70 fold
"TTTGCACACTTCGTACCCAA (antisense; 2'-MOE modified, pattern not given here) [CAMSAP1-4916 MOE]",TLR8 100 nM,"MOE-modified ASO at 100 nM, averaged NF-κB-Luciferase relative to R848 condition (fold increase)",1.877
same,TLR8 500 nM,"MOE-modified ASO at 500 nM, averaged NF-κB-Luciferase relative to R848 condition (fold increase)",2.199
mA*mA*mU*mU*mU*A*A*A*G*C*A*T*G*A*A*mU*mA*mU*mU*mA (mA*mA*mU*mU*mU*dA*dA*dA*dG*dC*dA*dT*dG*dA*dA*mU*mA*mU*mU*mA) [[CDKN2B-AS1]645],TLR8-500 nM: averaged NF-κB-Luciferase relative to R848,,5.02 fold
